Experimental data: PMC13415800 (Pharmaceutics, 2026)
Entries after “also recorded” stand apart in the source; their conditions may differ.

Assays:
Vero E6 cell line [1] = settings: compound concentration producing minimal changes in cell morphology, estimated by microscopy
Vero E6 cell line [2] = settings: for CC50: MTT
ZIKV (MR766, Uganda) = type: cell-based, Zika virus; settings: Vero E6; ZIKV MOI 1; five days; highest concentration without cytotoxicity (MCC)
ZIKV [3] = test: Time of drug addition assay (qRT-PCR); type: cell-based, Zika virus; settings: Vero E6, MOI 1, 50 µM, 24 h pi
Protocol: Vero E6 cells were seeded on 96-well plates at 3.5 × 10^4 well and incubated (37 °C, 5% CO2) overnight. The cells were infected for 1 h with MOI of 1. Cells were treated with 50 µM of compound 7. Cells were treated at three different times: 1 h before infection, concurrently with the infection, and one hour post-infection. After the infection, the supernatant was discarded and the cells were incubated for 24 h with the media, then RNA was isolated from the supernatant and quantified using qRT-PCR (see below).
(§1) For viral RNA isolation, the Total RNA Miniprep Kit (New England Biolabs, Ipswich, USA) was used, following the manufacturer’s instruction. After RNA elution, samples were stored at −80 °C until use. For the determination of viral RNA quantity, we used the Luna® Universal Probe One-Step RT-qPCR Kit (New England Biolabs, Ipswich, MA, USA). The primers used were ZIKV_NS1_F: […], ZIKV_NS1_R: […], and the probe was FAM-5′-CCC GCA GAT-3′ /ZEN/ 5′-TGG CAG CAG-3′-BHQ1. […]
We divided the samples into five groups based on the timing of treatment: no-treatment (ZIKV), pre-treatment for 1 h (pre), co-treatment (co), post-treatment for 1 h (post), and full treatment (full) (Figure 3A). Twenty-four hours post-infection (pi), we isolated viral RNA from the supernatant and quantified it using qRT-PCR. […]

ZIKV [4] = test: Binding assay (qRT-PCR); type: cell-based, Zika virus; settings: Vero E6; MOI 1; 50 µM; 1 h at 4 °C
Protocol: (§2) Vero E6 cells were seeded on 96 well plate 3.5 × 10^4 well and incubated (37 °C, 5% CO2) overnight. 1 h before the infection we put the cells at 4 °C. During the entry assay cells were infected for 1 h at 4 °C and MOI of 1, then washed twice with PBS. Afterward, they were treated with 50 µM of compound 7, lasting for 1 h (37 °C, 5% CO2). During the binding assay the cells were infected as before for 1 h at 4 °C and at the same time treated with 50 µM of compound 7. Following both of the treatments, the cells were washed once with PBS, then RNA was isolated from the cells. Viral RNA was quantified using qRT-PCR (see below). This assay was developed based on the methods established by Lu et al..
as §1
(§3) To gain a more precise understanding of the mechanism of action of compound 7, binding and entry assays were performed. […] After incubation, cells were washed with PBS prior to RNA extraction, and viral RNA levels were quantified by qRT-PCR.

ZIKV [5] = test: Entry assay (qRT-PCR); type: cell-based, Zika virus; settings: Vero E6; MOI 1; infection 1 h 4 °C, then 50 µM 1 h 37 °C
Protocol: as §2, §1, §3

ZIKV [6] = test: Virion inactivation assay (cell-free pre-incubation, plaque assay); type: cell-based, Zika virus
ZIKV [7] = test: Virion destabilization assay (RNase A, qRT-PCR); type: biochemical, Zika virus; settings: 50 µM, 1 h, 37 °C, then RNase A
ZIKV [8] = test: Liposome-based capsid protection assay (virus–liposome fusion); type: biochemical, Zika virus; settings: trypsin-containing liposomes; pH 5.3; 10, 50 μM
Vero E6 cells = test: Phospholipidosis assay (LipidTOX Deep Red); type: cell-based, African green monkey (Cercopithecus aethiops); settings: 48 h
Protocol: Vero E6 cells were seeded in 96-well plates and treated with compound 7 at the indicated concentrations for 48 h. Propranolol (30 µM) was used as a positive control and DMSO as vehicle control. Phospholipid accumulation was detected using LipidTOX™ Deep Red phospholipidosis stain (Thermo Fisher Scientific, Waltham, MA, USA, H34158) according to the manufacturer’s instructions. Nuclei were counterstained with Hoechst 33342. Representative images were acquired by confocal microscopy.

[9] = system: SARS-CoV-2 (B.1.5 (G) isolate, Hungarian); type: cell-based, severe acute respiratory syndrome coronavirus 2; settings: Vero E6, 3 days, MTT
CHIKV (Guatemala) = test: CPE inhibition assay, CHIKV on Vero E6; type: cell-based, chikungunya virus; settings: MOI 0.1, 3 days, MTT

## CC(=O)N[C@H]1[C@H](O[C@@H]2c3ccc(c(Cl)c3)Oc3cc4cc(c3O)Oc3ccc(cc3Cl)C[C@H]3NC(=O)[C@H](n5cc(COCCOCCCC(F)(F)C(F)(F)C(F)(F)C(F)(F)C(F)(F)C(F)(F)C(F)(F)C(F)(F)F)nn5)c5ccc(O)c(c5)Oc5cc(O)cc(c5)[C@H](NC3=O)C(=O)N[C@H]4C(=O)N[C@H]3C(=O)N[C@@H]2C(=O)N[C@H](C(=O)O)c2cc(O)cc(O)c2-c2cc3ccc2O)O[C@H](CO)[C@@H](O)[C@@H]1O [Compound 1]
Vero E6 cell line [1]
  MCC: >50 µM
Vero E6 cell line [2]
  CC50: 149 µM

## CC(=O)N[C@H]1[C@H](O[C@@H]2c3ccc(c(Cl)c3)Oc3cc4cc(c3O)Oc3ccc(cc3Cl)C[C@H]3NC(=O)[C@H](n5cc(COCCOCCCC(F)(F)C(F)(F)C(F)(F)C(F)(F)C(F)(F)C(F)(F)F)nn5)c5ccc(O)c(c5)Oc5cc(O)cc(c5)[C@H](NC3=O)C(=O)N[C@H]4C(=O)N[C@H]3C(=O)N[C@@H]2C(=O)N[C@H](C(=O)O)c2cc(O)cc(O)c2-c2cc3ccc2O)O[C@H](CO)[C@@H](O)[C@@H]1O [Compound 2]
ZIKV (MR766, Uganda)
  cytopathic effects (microscopy): we did not observed any CPE; also recorded: No cytopathic effects were observed
Vero E6 cell line [1]
  MCC: >40 µM
Vero E6 cell line [2]
  CC50: 195 µM

## CC(=O)N[C@H]1[C@H](O[C@@H]2c3ccc(c(Cl)c3)Oc3cc4cc(c3O)Oc3ccc(cc3Cl)C[C@H]3NC(=O)[C@H](n5cc(COCCOCCCC(F)(F)C(F)(F)C(F)(F)C(F)(F)F)nn5)c5ccc(O)c(c5)Oc5cc(O)cc(c5)[C@H](NC3=O)C(=O)N[C@H]4C(=O)N[C@H]3C(=O)N[C@@H]2C(=O)N[C@H](C(=O)O)c2cc(O)cc(O)c2-c2cc3ccc2O)O[C@H](CO)[C@@H](O)[C@@H]1O [Compound 3]
ZIKV (MR766, Uganda)
  cytopathic effects (microscopy): we did not observed any CPE; also recorded: No cytopathic effects were observed
Vero E6 cell line [1]
  MCC: >50 µM
Vero E6 cell line [2]
  CC50: 198 µM

## CC(=O)N[C@H]1[C@H](O[C@@H]2c3ccc(c(Cl)c3)Oc3cc4cc(c3O)Oc3ccc(cc3Cl)C[C@H]3NC(=O)[C@H](NC(=O)CCC(F)(F)C(F)(F)C(F)(F)C(F)(F)C(F)(F)C(F)(F)C(F)(F)C(F)(F)F)c5ccc(O)c(c5)Oc5cc(O)cc(c5)[C@H](NC3=O)C(=O)N[C@H]4C(=O)N[C@H]3C(=O)N[C@@H]2C(=O)N[C@H](C(=O)O)c2cc(O)cc(O)c2-c2cc3ccc2O)O[C@H](CO)[C@@H](O)[C@@H]1O [Compound 6]
ZIKV (MR766, Uganda)
  cytopathic effects (microscopy): we did not observed any CPE; also recorded: No cytopathic effects were observed
Vero E6 cell line [1]
  MCC: >60 µM
Vero E6 cell line [2]
  CC50: 175 µM

## CC(=O)NC1C(OC2c3ccc(c(Cl)c3)Oc3cc4cc(c3O)Oc3ccc(cc3Cl)CC3NC(=O)C(NC(=O)CCC(F)(F)C(F)(F)C(F)(F)C(F)(F)C(F)(F)C(F)(F)F)c5ccc(O)c(c5)Oc5cc(O)cc(c5)C(NC3=O)C(=O)NC4C(=O)NC3C(=O)NC2C(=O)NC(C(=O)O)c2cc(O)cc(O)c2-c2cc3ccc2O)OC(CO)C(O)C1O (stereo not drawn) [Compound 7]
ZIKV (MR766, Uganda)
  cytopathic effects (microscopy): No cytopathic effects were observed
ZIKV [3]; 1 h before infection
  viral RNA level vs no-treatment, pre-treatment (before infection): No significant inhibition
ZIKV [3]; 1 h post-infection
  viral RNA level vs no-treatment, post-treatment (after viral entry): No significant inhibition
ZIKV [4]
  viral RNA level, binding assay, treated vs control: No significant differences
ZIKV [5]
  viral RNA level, entry assay, treated vs control: No significant differences
ZIKV [6]
  reduction of viral titer vs untreated control: approximately one order of magnitude
ZIKV [7]
  viral RNA copy number vs negative control (virion integrity): No significant reduction
ZIKV [8]
  capsid protein signal under low-pH fusion conditions (Western blot): preserved the capsid signal
Vero E6 cells
  concentration from which phospholipidosis is detectable: ≥ 2500 nM
Vero E6 cells; positive control propranolol 30 µM
  phospholipidosis response: weak phospholipidosis response
Vero E6 cell line [1]
  MCC: >60 µM
Vero E6 cell line [2]
  CC50: 203 µM

## COC(=O)C1NC(=O)C2NC(=O)C(NC(=O)C3NC(=O)C4NC(=O)C(NC(=O)C(NC(=O)CCC(F)(F)C(F)(F)C(F)(F)C(F)(F)C(F)(F)C(F)(F)C(F)(F)C(F)(F)F)c5ccc(O)c(c5)Oc5cc4cc(O)c5C)C(O)c4ccc(cc4)Oc4cc3cc(c4O)Oc3ccc(cc3)C2O)c2ccc(O)c(c2)-c2c(O)cc(O)cc21 (stereo not drawn) [Compound 8]
Vero E6 cell line [1]
  MCC: >20 µM
Vero E6 cell line [2]
  cytotoxic effects (in words): slightly cytotoxic
  CC50: 62.6 µM

## Teicoplanin [reference compound]
[9]
  EC50: 33.9 µM
CHIKV (Guatemala)
  EC50: 86.2 µM
Vero E6 cell line [1]
  MCC: >60 µM
Vero E6 cell line [2]
  CC50: 280 µM
